# Source: patent publication US9567336B2, “Conjugated TLR7 and/or TLR8 and TLR2 agonists” (CAYLA, priority 2012, dated 2017)
# Columns and labels:
# murine TLR2 = biological target: T1, murine TLR2 (Mus musculus, UniProt Q9QUN7); assay: HEK-Blue mTLR2 NF-κB/AP-1 SEAP reporter cell assay; assay type: cell-based; conditions: HEK-Blue mTLR2 reporter cells, 10 μg/mL to 10 pg/ml, 24 hours, OD at 655 nm; FIG. 4
# T1 construct: host or cells: HEK293 (HEK-Blue mTLR2)
# Experimental: (§1) Some conjugated compounds of the invention were tested for their ability to activate TLR7 and TLR2 receptor signaling. Cell-based assays were carried out using TLR7 and TLR2 reporter cell lines (InvivoGen). The reporter cell lines are engineered HEK293 cells, a human embryonic kidney cell line (ATCC, CRL-1573) that stably express either murine TLR7 (HEK-Blue™ mTLR7) or human TLR7 (HEK-Blue™ hTLR7) or murine TLR2 (HEK-Blue™ mTLR2) or human TLR2 (HEK-Blue™ hTLR2) with an NF-κB-inducible secreted embryonic alkaline phosphatase (SEAP) as the reporter gene. The SEAP reporter gene is placed under the control of the NF-κB and AP-inducible promoter. Stimulation with the corresponding TLR ligand activates NF-κB and AP-1, which induces the production of SEAP. Detection of SEAP is measured following culturing cells in HEK-Blue™ Detection media (InvivoGen). HEK-Blue™ Detection contains a SEAP substrate, which upon hydrolysis by SEAP produces a colorimetric change allowing for detection of SEAP as the protein is secreted. […] These assays were carried out using RAW-Blue™ Cells (InvivoGen), derived from RAW 264.7 mouse leukemic monocytic macrophage cell line (ATCC, CRL 2278) stably overexpressing a NF-κB/AP-1 inducible SEAP reporter constructs.
# (§2) To perform the assay, cells were seeded on 96 well microliter plates at 50,000 or 100,000 cells per well for HEK-Blue™ Cells and RAW-Blue™ Cells respectively, and cultured at 37° C. in the presence of the conjugated compounds. The conjugated compounds were prepared as follows: First, stock solutions of the small molecule conjugated compounds of the invention were prepared in ethanol or water to a concentration of 10 mg/ml. A working dilution of the conjugated TLR7-TLR2 small molecules was made up in water and added to cells at a final range of concentrations from 10 μg/mL to 10 pg/ml. The working dilutions of the conjugated TLR7-TLR2 small molecules as the stated concentrations were directly added to the reporter cell lines and incubated at 37° C. for 24 hours. After 24 hours of incubation, the effect on reporter gene activity was determined by reading the OD at 655 nm using iMark™ Microplate Reader (BIO-RAD).
# (§3) The conjugated compounds were tested alone for their ability to specifically activate TLR7 and TLR2, alongside the known TLR7 activators R848 or CL264 (InvivoGen) and the TLR2 agonists Pam2CSK4 or Pam3CSK4 (InvivoGen). The specificity of the TLR activity was determined by use of reporter cell lines to the other TLRs (data not shown). […] The molecules show a tendency to activate mouse TLR7 with greater sensitivity than human TLR7. […] Furthermore, dose-dependent responses of the conjugated compounds indicate significant TLR activities of TLR7 and TLR2 compared to the corresponding controls.
# human TLR7 = biological target: T2, human TLR7 (Homo sapiens, UniProt Q9NYK1); assay: HEK-Blue hTLR7 NF-κB/AP-1 SEAP reporter cell assay; assay type: cell-based; conditions: HEK-Blue hTLR7 reporter cells, 10 μg/mL to 10 pg/ml, 24 hours, OD at 655 nm; FIGS. 1A, 1B
# T2 construct: host or cells: HEK293 (HEK-Blue hTLR7)
# T2 sequence (Q9NYK1 27-1049): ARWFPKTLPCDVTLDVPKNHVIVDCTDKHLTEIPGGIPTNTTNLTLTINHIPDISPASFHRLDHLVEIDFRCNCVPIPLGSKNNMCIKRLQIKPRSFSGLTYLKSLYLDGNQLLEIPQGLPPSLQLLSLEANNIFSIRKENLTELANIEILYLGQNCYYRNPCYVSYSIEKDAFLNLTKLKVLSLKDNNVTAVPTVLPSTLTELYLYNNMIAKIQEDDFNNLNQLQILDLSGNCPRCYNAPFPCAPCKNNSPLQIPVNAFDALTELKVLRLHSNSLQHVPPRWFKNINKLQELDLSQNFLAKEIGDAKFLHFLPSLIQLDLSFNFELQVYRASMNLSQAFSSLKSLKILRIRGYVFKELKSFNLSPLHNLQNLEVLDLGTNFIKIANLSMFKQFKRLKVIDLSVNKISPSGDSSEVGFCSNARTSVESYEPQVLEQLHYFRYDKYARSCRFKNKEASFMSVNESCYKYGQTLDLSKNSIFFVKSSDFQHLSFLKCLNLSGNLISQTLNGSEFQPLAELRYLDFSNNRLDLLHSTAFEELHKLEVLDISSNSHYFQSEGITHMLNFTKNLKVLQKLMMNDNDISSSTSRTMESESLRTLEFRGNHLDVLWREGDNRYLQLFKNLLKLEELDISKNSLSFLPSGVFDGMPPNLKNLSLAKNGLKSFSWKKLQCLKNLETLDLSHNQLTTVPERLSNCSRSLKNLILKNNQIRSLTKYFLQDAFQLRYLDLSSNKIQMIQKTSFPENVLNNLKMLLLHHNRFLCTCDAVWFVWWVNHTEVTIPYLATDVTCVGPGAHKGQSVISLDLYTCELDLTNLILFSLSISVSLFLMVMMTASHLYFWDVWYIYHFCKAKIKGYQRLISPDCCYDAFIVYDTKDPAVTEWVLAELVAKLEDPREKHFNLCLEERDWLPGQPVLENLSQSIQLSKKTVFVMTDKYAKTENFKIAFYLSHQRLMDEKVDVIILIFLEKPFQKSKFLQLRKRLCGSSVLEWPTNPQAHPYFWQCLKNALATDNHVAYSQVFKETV
# Experimental: as §1, §2, §3
# [1] = system: NF-κB in RAW-Blue™ Cells (RAW 264.7, endogenous TLR7 and TLR2); assay: RAW-Blue Cells NF-κB/AP-1 inducible SEAP reporter assay; assay type: cell-based, mouse; conditions: murine monocytic macrophage cell line RAW 264.7, 24 hours, OD at 655 nm; FIGS. 5A, 5B
# Experimental: as §1, §2, §3
# human TLR2 = biological target: T3, human TLR2 (Homo sapiens, UniProt O60603); assay: HEK-Blue hTLR2 NF-κB/AP-1 SEAP reporter cell assay; assay type: cell-based; conditions: HEK-Blue hTLR2 reporter cells, 10 μg/mL to 10 pg/ml, 24 hours, OD at 655 nm; FIGS. 3A, 3B
# T3 construct: host or cells: HEK293 (HEK-Blue hTLR2)
# Experimental: as §1, §2, §3
# murine TLR7 = biological target: T4, murine TLR7 (Mus musculus, UniProt P58681); assay: HEK-Blue mTLR7 NF-κB/AP-1 SEAP reporter cell assay; assay type: cell-based; conditions: HEK-Blue mTLR7 reporter cells, 10 μg/mL to 10 pg/ml, 24 hours, OD at 655 nm; FIGS. 2A, 2B
# T4 construct: host or cells: HEK293 (HEK-Blue mTLR7)
# T4 sequence (P58681 27-1050): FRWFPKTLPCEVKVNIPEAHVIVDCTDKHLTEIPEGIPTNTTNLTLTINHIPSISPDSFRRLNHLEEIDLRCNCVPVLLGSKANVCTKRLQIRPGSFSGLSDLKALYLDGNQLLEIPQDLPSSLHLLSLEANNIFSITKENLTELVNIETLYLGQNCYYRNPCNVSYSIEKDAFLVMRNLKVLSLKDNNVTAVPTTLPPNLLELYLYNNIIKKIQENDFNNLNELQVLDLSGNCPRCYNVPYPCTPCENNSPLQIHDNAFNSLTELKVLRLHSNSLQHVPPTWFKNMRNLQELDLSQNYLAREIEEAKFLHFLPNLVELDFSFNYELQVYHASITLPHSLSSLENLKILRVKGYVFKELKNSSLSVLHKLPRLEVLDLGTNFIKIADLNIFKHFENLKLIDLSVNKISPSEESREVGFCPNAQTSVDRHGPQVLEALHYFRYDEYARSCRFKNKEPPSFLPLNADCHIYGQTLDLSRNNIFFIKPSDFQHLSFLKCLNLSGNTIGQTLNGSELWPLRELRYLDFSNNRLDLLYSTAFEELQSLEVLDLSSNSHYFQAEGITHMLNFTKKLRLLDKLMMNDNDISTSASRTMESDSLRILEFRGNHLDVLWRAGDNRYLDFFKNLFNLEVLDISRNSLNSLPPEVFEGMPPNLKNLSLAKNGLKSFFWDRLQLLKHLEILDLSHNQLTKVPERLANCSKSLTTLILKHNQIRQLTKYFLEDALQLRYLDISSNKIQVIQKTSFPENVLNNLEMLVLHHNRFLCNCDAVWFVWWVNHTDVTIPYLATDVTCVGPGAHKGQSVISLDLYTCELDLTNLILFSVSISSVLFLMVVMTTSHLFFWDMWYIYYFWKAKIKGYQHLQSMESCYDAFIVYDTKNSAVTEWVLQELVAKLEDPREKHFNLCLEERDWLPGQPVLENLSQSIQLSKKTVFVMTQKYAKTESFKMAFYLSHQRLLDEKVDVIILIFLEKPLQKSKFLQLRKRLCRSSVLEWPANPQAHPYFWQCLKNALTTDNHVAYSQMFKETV
# Experimental: as §1, §2, §3
# T1 sequence (Q9QUN7 25-784): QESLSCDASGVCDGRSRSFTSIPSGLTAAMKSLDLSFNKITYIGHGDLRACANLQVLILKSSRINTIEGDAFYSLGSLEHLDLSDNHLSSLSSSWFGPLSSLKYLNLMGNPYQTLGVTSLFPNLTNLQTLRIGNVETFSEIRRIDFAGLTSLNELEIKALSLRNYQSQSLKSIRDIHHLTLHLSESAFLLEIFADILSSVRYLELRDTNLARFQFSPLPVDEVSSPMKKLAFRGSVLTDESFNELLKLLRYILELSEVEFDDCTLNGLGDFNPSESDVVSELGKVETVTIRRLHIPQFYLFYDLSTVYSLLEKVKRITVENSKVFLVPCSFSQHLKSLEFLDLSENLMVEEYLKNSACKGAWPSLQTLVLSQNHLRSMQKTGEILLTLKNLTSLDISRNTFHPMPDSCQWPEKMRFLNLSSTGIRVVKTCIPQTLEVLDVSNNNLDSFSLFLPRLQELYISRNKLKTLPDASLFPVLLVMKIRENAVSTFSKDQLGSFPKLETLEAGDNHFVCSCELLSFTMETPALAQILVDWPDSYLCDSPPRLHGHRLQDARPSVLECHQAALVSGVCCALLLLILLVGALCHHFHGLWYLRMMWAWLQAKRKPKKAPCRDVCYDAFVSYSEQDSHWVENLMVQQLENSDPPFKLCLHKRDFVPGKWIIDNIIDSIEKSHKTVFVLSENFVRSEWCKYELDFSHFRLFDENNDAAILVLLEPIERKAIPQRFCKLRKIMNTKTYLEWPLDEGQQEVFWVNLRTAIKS
# T3 sequence (O60603 21-784): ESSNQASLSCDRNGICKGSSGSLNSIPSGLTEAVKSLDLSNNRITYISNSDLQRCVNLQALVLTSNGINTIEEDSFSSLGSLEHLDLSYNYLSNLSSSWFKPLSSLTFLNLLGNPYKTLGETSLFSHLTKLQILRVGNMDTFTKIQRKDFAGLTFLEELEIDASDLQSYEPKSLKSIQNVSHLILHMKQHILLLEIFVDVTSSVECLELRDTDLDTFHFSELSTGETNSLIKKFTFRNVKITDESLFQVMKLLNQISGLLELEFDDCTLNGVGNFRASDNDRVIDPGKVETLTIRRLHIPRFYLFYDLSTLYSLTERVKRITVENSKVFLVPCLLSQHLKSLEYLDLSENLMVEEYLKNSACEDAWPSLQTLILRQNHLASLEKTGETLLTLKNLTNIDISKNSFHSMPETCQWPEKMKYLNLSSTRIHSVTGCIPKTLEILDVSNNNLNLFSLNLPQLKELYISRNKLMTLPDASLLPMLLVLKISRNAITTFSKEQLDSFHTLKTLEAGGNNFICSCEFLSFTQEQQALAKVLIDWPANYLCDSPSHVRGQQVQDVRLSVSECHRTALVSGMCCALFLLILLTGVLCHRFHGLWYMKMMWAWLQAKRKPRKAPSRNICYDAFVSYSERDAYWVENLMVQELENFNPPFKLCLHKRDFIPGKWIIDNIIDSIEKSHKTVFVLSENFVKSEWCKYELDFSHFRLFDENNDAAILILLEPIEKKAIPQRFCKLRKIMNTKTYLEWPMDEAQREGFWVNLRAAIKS
SMILES,ability to activate TLR2 receptor (murine TLR2) (murine TLR2),ability to activate TLR7 receptors (human TLR7) (human TLR7),induction of NF-κB in RAW-Blue cells [1],ability to activate TLR2 receptor (human TLR2) (human TLR2),ability to activate TLR7 receptors (murine TLR7) (murine TLR7)
"CCCCCCCCCCCCCCCCCC(=O)OCCSC[C@H](N)C(=O)Nc1ccc(Cn2c(O)nc3c(N)nc(NCCCC)nc32)cc1 [CL557, (R)-2-(2-amino-3-(4-((6-amino-2-(butylamino)-8-hydroxy-9H-purin-9-yl)methyl)phenylamino)-3-oxopropylthio)ethyl stearate]",activate TLR2 receptor,activate TLR7 receptors,activate NF-κB,activate TLR2 receptor,activate TLR7 receptors
"CCCCCCCCCCCCCCCC(=O)OCCSC[C@H](N)C(=O)Nc1ccc(Cn2c(O)nc3c(N)nc(NCCCC)nc32)cc1 [CL556, (R)-2-(2-amino-3-(4-((6-amino-2-(butylamino)-8-hydroxy-9H-purin-9-yl)methyl)phenylamino)-3-oxopropylthio)ethyl palmitate]",activate TLR2 receptor,activate TLR7 receptors,activate NF-κB,activate TLR2 receptor,activate TLR7 receptors
"CCCCCCCCCCCCCC(=O)OCCSC[C@H](N)C(=O)N[C@@H](CO)C(=O)Nc1ccc(Cn2c(O)nc3c(N)nc(NCCCC)nc32)cc1 [CL558, 2-((R)-2-amino-3-((S)-1-(4-((6-amino-2-(butylamino)-8-hydroxy-9H-purin-9-yl)methyl)phenylamino)-3-hydroxy-1-oxopropan-2-ylamino)-3-oxopropylthio)ethyltetradecanoate]",activate TLR2 receptor,activate TLR7 receptors,activate NF-κB,activate TLR2 receptor,activate TLR7 receptors
